{"source": "ChEMBL document CHEMBL5385961", "about": "“In vitro and in vivo evaluation of novel chromeno[2,3-d]pyrimidinones as therapeutic agents for triple negative breast cancer” (RSC Med Chem, 2024)", "key": {"[1]": {"test_system": "Hs-578T", "assay": "Cytotoxicity against human Hs-578T cells assessed as cell viability at 30 uM incubated for 72 hrs by SRB assay relative to control", "format": "functional", "conditions": "read-out: Activity"}, "[2]": {"assay": "Toxicity in wild type C57BL/6J mouse assessed as mean food intake at 50 mg/kg, ip administered daily for 7 days", "format": "organism-based", "conditions": "in vivo, 168 h, time 7 day"}, "[3]": {"assay": "Toxicity in wild type C57BL/6J mouse assessed as effect on hydration at 10 to 50 mg/kg, ip administered daily for 7 days and measured daily", "format": "organism-based", "conditions": "in vivo, 168 h, dose 10-50 mg/kg, time 7 day"}, "[4]": {"test_system": "Hs-578T", "assay": "Cytotoxicity against human Hs-578T cells assessed as reduction in cell proliferation at IC50 measured after 24 hrs by BrdU incorporation assay relative to control", "format": "functional", "parameters": "scale not given: the % may be the effect or the level left"}, "[5]": {"test_system": "MDA-MB-231", "assay": "Cytotoxicity against human MDA-MB-231 cells assessed as cell viability at 10 uM incubated for 72 hrs by SRB assay relative to control", "format": "functional", "conditions": "read-out: Activity"}, "[6]": {"assay": "Toxicity in wild type C57BL/6J mouse assessed as transfer to reaction at 10 to 50 mg/kg, ip administered daily for 7 days and measured daily", "format": "organism-based", "conditions": "in vivo, 168 h, dose 10-50 mg/kg, time 7 day"}, "[7]": {"assay": "Toxicity in wild type C57BL/6J mouse assessed as mean water intake per day at 10 to 50 mg/kg, ip administered daily for 7 days", "format": "organism-based", "conditions": "in vivo, 168 h, dose 10-50 mg/kg, time 7 day"}, "[8]": {"test_system": "Hs-578T", "assay": "Induction of cell cycle arrest in human Hs-578T cells assessed as increase in G2/M phase cell population at IC50 measured after 24 hrs by RNase/PI staining based flow cytometry analysis", "format": "functional"}, "[9]": {"test_system": "Hs-578T", "assay": "Induction of apoptosis in human Hs-578T cells assessed as increase in cleaved PARP level at IC50 measured after 48 hrs by Western blot analysis", "format": "functional, cell-based"}, "[10]": {"assay": "Toxicity in wild type C57BL/6J mouse assessed as effect on respiratory rate at 10 to 50 mg/kg, ip administered daily for 7 days and measured daily", "format": "organism-based", "conditions": "in vivo, 168 h, dose 10-50 mg/kg, time 7 day"}, "[11]": {"test_system": "Hs-578T", "assay": "Induction of apoptosis in human Hs-578T cells assessed as increase in BAD protein expression at IC50 measured after 24 to 48 hrs by Western blot analysis", "format": "functional, cell-based", "conditions": "time 24-48 hrs"}, "[12]": {"test_system": "MCF7", "assay": "Cytotoxicity against human MCF7 cells assessed as cell viability at 30 uM incubated for 72 hrs by SRB assay relative to control", "format": "functional", "conditions": "read-out: Activity"}, "[13]": {"assay": "Toxicity in wild type C57BL/6J mouse assessed as reduction in body weight at 10 to 50 mg/kg, ip administered daily for 7 days", "format": "organism-based", "conditions": "in vivo, 168 h, dose 10-50 mg/kg, time 7 day"}, "[14]": {"assay": "Toxicity in wild type C57BL/6J mouse assessed as clasping at 10 to 50 mg/kg, ip administered daily for 7 days and measured daily", "format": "organism-based", "conditions": "in vivo, 168 h, dose 10-50 mg/kg, time 7 day"}, "[15]": {"assay": "Toxicity in wild type C57BL/6J mouse assessed as effect on spontaneous activity at 10 to 50 mg/kg, ip administered daily for 7 days and measured daily", "format": "organism-based", "conditions": "in vivo, 168 h, dose 10-50 mg/kg, time 7 day"}, "[16]": {"assay": "Toxicity in wild type C57BL/6J mouse assessed as tremor at 10 to 50 mg/kg, ip administered daily for 7 days and measured daily", "format": "organism-based", "conditions": "in vivo, 168 h, dose 10-50 mg/kg, time 7 day"}, "[17]": {"test_system": "Hs-578T", "assay": "Cytotoxicity against human Hs-578T cells assessed as reduction in cell proliferation at IC50 measured after 48 hrs by BrdU incorporation assay relative to control", "format": "functional", "parameters": "scale not given: the % may be the effect or the level left"}, "[18]": {"test_system": "Hs-578T", "assay": "Induction of apoptosis in human Hs-578T cells assessed as reduction in viable cells at IC50 measured after 24 to 48 hrs by Annexin V-FITC/PI staining based flow cytometry analysis", "format": "functional, cell-based", "conditions": "time 24-48 hrs"}, "[19]": {"assay": "Toxicity in wild type C57BL/6J mouse assessed as effect on bolus fecalis count at 10 to 50 mg/kg, ip administered daily for 7 days and measured daily", "format": "organism-based", "conditions": "in vivo, 168 h, dose 10-50 mg/kg, time 7 day"}, "[20]": {"test_system": "Hs-578T", "assay": "Induction of cell cycle arrest in human Hs-578T cells assessed as reduction in G0/G1 cell population at IC50 measured after 24 hrs by RNase/PI staining based flow cytometry analysis", "format": "functional"}, "[21]": {"test_system": "Hs-578T", "assay": "Cytotoxicity against human Hs-578T cells assessed as reduction in cell proliferation at 0.5 times IC50 measured after 24 hrs by BrdU incorporation assay relative to control", "format": "functional", "parameters": "scale not given: the % may be the effect or the level left"}, "[22]": {"test_system": "Hs-578T", "assay": "Induction of cell cycle arrest in human Hs-578T cells assessed as accumulation of cells at S phase at IC50 measured after 24 hrs by RNase/PI staining based flow cytometry analysis", "format": "functional"}, "[23]": {"test_system": "Hs-578T", "assay": "Cytotoxicity against human Hs-578T cells assessed as reduction in cell proliferation at 0.5 times IC50 measured after 48 hrs by BrdU incorporation assay relative to control", "format": "functional", "parameters": "scale not given: the % may be the effect or the level left"}, "[24]": {"test_system": "Hs-578T", "assay": "Induction of apoptosis in human Hs-578T cells assessed as increase in early apoptotic cells at IC50 measured after 48 hrs by Annexin V-FITC/PI staining based flow cytometry analysis relative to control", "format": "functional"}, "[25]": {"species": "Homo sapiens", "assay": "Selectivity index, ratio of IC50 for human MCF-10A cells to IC50 for human Hs-578T cells"}, "[26]": {"assay": "Toxicity in wild type C57BL/6J mouse assessed as effect on horizontal activity at 10 to 50 mg/kg, ip administered daily for 7 days and measured daily", "format": "organism-based", "conditions": "in vivo, 168 h, dose 10-50 mg/kg, time 7 day"}, "[27]": {"test_system": "Hs-578T", "assay": "Induction of apoptosis in human Hs-578T cells assessed as increase in BID protein expression at IC50 measured after 24 to 48 hrs by Western blot analysis", "format": "functional, cell-based", "conditions": "time 24-48 hrs"}, "[28]": {"assay": "Toxicity in wild type C57BL/6J mouse assessed as effect on grooming at 10 to 50 mg/kg, ip administered daily for 7 days and measured daily", "format": "organism-based", "conditions": "in vivo, 168 h, dose 10-50 mg/kg, time 7 day"}, "[29]": {"assay": "Toxicity in wild type C57BL/6J mouse assessed as effect on body position at 10 to 50 mg/kg, ip administered daily for 7 days and measured daily", "format": "organism-based", "conditions": "in vivo, 168 h, dose 10-50 mg/kg, time 7 day"}, "[30]": {"test_system": "Hs-578T", "assay": "Cytotoxicity against human Hs-578T cells assessed as cell viability at 10 uM incubated for 72 hrs by SRB assay relative to control", "format": "functional", "conditions": "read-out: Activity"}, "[31]": {"test_system": "MDA-MB-231", "assay": "Cytotoxicity against human MDA-MB-231 cells assessed as cell viability at 30 uM incubated for 72 hrs by SRB assay relative to control", "format": "functional", "conditions": "read-out: Activity"}, "[32]": {"assay": "Toxicity in wild type C57BL/6J mouse assessed as effect on fur quality at 10 to 50 mg/kg, ip administered daily for 7 days and measured daily", "format": "organism-based", "conditions": "in vivo, 168 h, dose 10-50 mg/kg, time 7 day"}, "[33]": {"test_system": "Hs-578T", "assay": "Antitumor activity against human Hs-578T cells implanted in chick eggs assessed as tumor growth regression at 2 times IC50 administered starting from day 13 and measured 17 days post embryo development by stereomicroscopic analysis", "format": "functional, cell-based", "conditions": "time 5.0 day"}, "[34]": {"assay": "Toxicity in wild type C57BL/6J mouse assessed as mean food intake at 10 mg/kg, ip administered daily for 7 days", "format": "organism-based", "conditions": "in vivo, 168 h, time 7 day"}, "[35]": {"test_system": "Hs-578T", "assay": "Induction of apoptosis in human Hs-578T cells assessed as increase in early apoptotic cells at IC50 measured after 24 to 48 hrs by Annexin V-FITC/PI staining based flow cytometry analysis", "format": "functional, cell-based", "conditions": "time 24-48 hrs"}, "[36]": {"assay": "Toxicity in wild type C57BL/6J mouse assessed as effect on eyelid reflexes at 10 to 50 mg/kg, ip administered daily for 7 days and measured daily", "format": "organism-based", "conditions": "in vivo, 168 h, dose 10-50 mg/kg, time 7 day"}, "[37]": {"assay": "Toxicity in wild type C57BL/6J mouse assessed as effect on eyelid opening at 10 to 50 mg/kg, ip administered daily for 7 days and measured daily", "format": "organism-based", "conditions": "in vivo, 168 h, dose 10-50 mg/kg, time 7 day"}, "[38]": {"test_system": "MCF7", "assay": "Cytotoxicity against human MCF7 cells assessed as cell viability at 10 uM incubated for 72 hrs by SRB assay relative to control", "format": "functional", "conditions": "read-out: Activity"}, "[39]": {"test_system": "Hs-578T", "assay": "Induction of apoptosis in human Hs-578T cells assessed as increase in caspase-8 protein expression at IC50 measured after 24 hrs by Western blot analysis", "format": "functional, cell-based"}}, "note": "Calls of active or inactive are those of the source. The rule behind the calls is not given here."}
{"smiles": "Brc1ccc2c(c1)-c1cc(-c3ccccc3)nc3c1C(N=CN3c1ccccc1)O2", "note": "(centres undefined)", "values": [{"measurement": "viability at 30 µM", "setting": "[1]", "result": 32.6, "unit": "%"}, {"measurement": "Activity", "setting": "[2]", "result": 2.94, "unit": "g/day"}, {"measurement": "Activity", "setting": "[3]", "result": "Non-Toxic"}, {"measurement": "Activity", "setting": "[4]", "result": "~30", "unit": "%"}, {"measurement": "viability at 10 µM", "setting": "[5]", "result": 49.9, "unit": "%"}, {"measurement": "Activity", "setting": "[6]", "result": "Non-Toxic"}, {"measurement": "Activity", "setting": "[7]", "result": "~ 4 ml"}, {"measurement": "Activity", "setting": "[8]", "result": "Active"}, {"measurement": "Activity", "setting": "[9]", "result": "Active"}, {"measurement": "Activity", "setting": "[10]", "result": "Non-Toxic"}, {"measurement": "Activity", "setting": "[11]", "result": "Active"}, {"measurement": "viability at 30 µM", "setting": "[12]", "result": 25.9, "unit": "%"}, {"measurement": "Activity", "setting": "[13]", "result": "Non-Toxic"}, {"measurement": "Activity", "setting": "[14]", "result": "Non-Toxic"}, {"measurement": "Activity", "setting": "[15]", "result": "Non-Toxic"}, {"measurement": "Activity", "setting": "[16]", "result": "Non-Toxic"}, {"measurement": "Activity", "setting": "[17]", "result": 35, "unit": "%"}, {"measurement": "Activity", "setting": "[18]", "result": "Active"}, {"measurement": "Activity", "setting": "[19]", "result": "Non-Toxic"}, {"measurement": "Activity", "setting": "[20]", "result": "Active"}, {"measurement": "Activity", "setting": "[21]", "result": "~8", "unit": "%"}, {"measurement": "Activity", "setting": "[22]", "result": "inactive"}, {"measurement": "Activity", "setting": "[23]", "result": 10, "unit": "%"}, {"measurement": "Activity", "setting": "[24]", "result": "~50", "unit": "%"}, {"measurement": "Ratio IC50", "setting": "[25]", "result": 3.26}, {"measurement": "Activity", "setting": "[26]", "result": "Non-Toxic"}, {"measurement": "Activity", "setting": "[27]", "result": "Active"}, {"measurement": "Activity", "setting": "[28]", "result": "Non-Toxic"}, {"measurement": "Activity", "setting": "[29]", "result": "Non-Toxic"}, {"measurement": "viability at 10 µM", "setting": "[30]", "result": 50.4, "unit": "%"}, {"measurement": "viability at 30 µM", "setting": "[31]", "result": 40.5, "unit": "%"}, {"measurement": "Activity", "setting": "[32]", "result": "Non-Toxic"}, {"measurement": "Activity", "setting": "[33]", "result": "Active"}, {"measurement": "Activity", "setting": "[34]", "result": "~ 3 g/day"}, {"measurement": "Activity", "setting": "[35]", "result": "Active"}, {"measurement": "Activity", "setting": "[36]", "result": "Non-Toxic"}, {"measurement": "Activity", "setting": "[37]", "result": "Non-Toxic"}, {"measurement": "viability at 10 µM", "setting": "[38]", "result": 58, "unit": "%"}, {"measurement": "Activity", "setting": "[39]", "result": "Active"}]}
